Experiment in all cases: NCI anticancer screen, dose series, 48 h
For assay [1], the system named is HCT-116 colon.
Assay [2] relates to SR leukemia.
In assay [3] the test system is CCRF-CEM leukemia.
Assay [4] deals with RPMI-8226 leukemia.
Assay [5] deals with 786-0 renal.
Assay [6] has as its system NCI-H460 lung.
The test system of assay [7] is MALME-3M melanoma.
The subject of assay [8] is BT-549 breast.
The test system of assay [9] is MDA-MB-231 breast.
For assay [10], the system named is HCC-2998 colon.

“And” between values parts separate entries of the source, which are not always exact repeats. Equal entries are not always repeated.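 Five compound concentrations were applied to cells in 96-well plates for 48 hours; endpoints were derived by simple linear interpolation of the resulting dose-response curve. GI50: concentration for 50% inhibition of growth. TGI: total growth inhibition.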

In the case of `COc1ccc(NC(=O)COc2ccccc2)c(C(N)=O)c1`, the GI50 is 588 nM in assay [1]; 466 nM in assay [2]; 961 nM in assay [3]; 1930 nM in [4]; 2180 nM in [5]; 605 nM in assay [6]. In addition, the GI50 in assay [7] is 69 µM; in [8], 621 nM; in [9], 1910 nM; in [10], 3.2 µM. Besides, the TGI in assay [1] was greater than 100 µM; in [2], greater than 50.2 µM; in assay [3], greater than 100 µM; in assay [4], greater than 55.2 µM; in [5] it was 49.4 µM; in [6], greater than 56.7 µM. The TGI in assay [7] is greater than 100 µM; in assay [8], greater than 100 µM; in assay [9], greater than 63 µM; in assay [10], greater than 87.3 µM.

In the case of `COc1ccc(/C=C(/C(=O)N2CCN(c3ccc(C)cc3)CC2)c2cc(OC)c(OC)c(OC)c2)cc1N`, the GI50 in assay [1] is 254 nM; in assay [2], 238 nM; in assay [3], 394 nM; in assay [4] it was 284 nM; in [5], 320 nM; in assay [6] it was 347 nM. Further, the GI50 in assay [7] is 0.503 µM; in [8], 199 nM; in assay [9] it was 360 nM; in [10], 0.376 µM. For the same molecule, the TGI is greater than 32.9 µM in [1]; greater than 100 µM in assay [2]; greater than 100 µM in assay [3]; greater than 33.7 µM in assay [4]; greater than 100 µM in [5]; greater than 44 µM in assay [6]. For the same molecule, the TGI in assay [7] was greater than 100 µM; in assay [8] it was 4.79 µM; in assay [9], greater than 100 µM; in assay [10] it was greater than 100 µM.

For `CS(=O)(=O)OCCCCOS(C)(=O)=O`, the GI50 in assay [1] is 689000 nM; in assay [2] it was 100000 nM; in assay [3] it was 214000 nM; in [4], 95900 nM; in assay [5] it was 539000 nM; in assay [6] it was 223000 nM. The GI50 in [7] is greater than 1000 µM; in assay [8], greater than 250000 nM; in [9], greater than 250000 nM; in assay [10], greater than 1000 µM. Moreover, the TGI in assay [1] was 250 µM and > 1000 µM; in assay [2] it was 223 µM and > 1000 µM; in [3] it was 250 µM and > 877 µM; in [4] it was 250 µM and > 1000 µM; in [5], 250 µM and > 1000 µM; in [6] it was 242 µM and > 1000 µM. In addition, the TGI in assay [7] is 250 µM and > 1000 µM; in assay [8] it was greater than 1000 µM; in assay [9] it was greater than 1000 µM; in assay [10] it was 201 µM and > 1000 µM.

On to `O=C1c2cccc3c([N+](=O)[O-])ccc(c23)C(=O)N1CCCCl`, for which the GI50 in assay [1] is 1710 nM; in assay [2], 334 nM; in assay [3], 489 nM; in assay [4], 4610 nM; in assay [5], greater than 10000 nM; in [6], 5550 nM. Also, the GI50 in assay [7] was 9.77 µM; in [8], 4820 nM; in assay [9] it was greater than 10000 nM; in assay [10], 5.85 µM. The TGI in assay [1] is 3.16 µM; in [2] it was greater than 10 µM; in assay [3], 3.28 µM; in assay [4] it was greater than 10 µM; in assay [5], greater than 10 µM; in assay [6], greater than 10 µM. For the same molecule, the TGI in assay [7], in assay [8], in [9] and in [10] was greater than 10 µM in each case.

Take `COc1ccc(Nc2[nH]n(C3=Nc4ccccc4Sc4ccccc43)c(=O)c2C#N)cc1`: the GI50 in assay [1] was 1330 nM; in assay [2], 518 nM; in assay [3] it was 1190 nM; in assay [4], 1590 nM; in assay [5] it was 2670 nM; in assay [6] it was 1950 nM. Besides, the GI50 in assay [7] was 2.67 µM; in assay [8] it was 494 nM; in [9] it was 1390 nM; in assay [10], 2.32 µM. The TGI was 12 µM in [1]; greater than 100 µM in assay [2]; greater than 100 µM in assay [3]; greater than 100 µM in assay [4]; 22.3 µM in assay [5]; 12 µM in assay [6]. The TGI is greater than 100 µM in [7], 3.4 µM in assay [8], 11.9 µM in [9] and 10.5 µM in assay [10].

(Values after PubChem BioAssay (NCI).)
